# Target: T1, NS3 protease domain complexed to a modified form of the NS4A peptide (Pep4AK) (Hepatitis C virus genotype 1b, UniProt P26663)
# T1 construct: NS3 protease domain (residues 1027–1206 of the HCV polyprotein)
# Experiment: HCV NS3 protease domain/NS4A cofactor peptide assay (Assay B)
# Assay type: biochemical
# Conditions: Table 1; NS3 protease domain/Pep4AK, 4AB peptide substrate; read-out: Assay B
# T1 sequence (P26663 1027-1206, other chains not shown): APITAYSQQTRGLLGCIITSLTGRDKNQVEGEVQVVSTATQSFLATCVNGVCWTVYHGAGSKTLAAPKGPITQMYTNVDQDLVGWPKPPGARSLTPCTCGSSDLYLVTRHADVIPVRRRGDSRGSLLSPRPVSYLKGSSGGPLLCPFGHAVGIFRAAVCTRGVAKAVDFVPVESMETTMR
row,IC50,Compound
1,< 100 µM,COc1ccc(OC)c(CCNC(=O)C(CS)NC(=O)C(CC(C)C)NC(=O)C(CCC(=O)O)NC(=O)OCC(C)C)c1 (stereo not shown) [Compound 174]
2,< 100 µM,CC(C)COC(=O)NC(CCC(=O)O)C(=O)NC(CC(C)C)C(=O)NC(CS)C(=O)NCCc1c[nH]c2ccccc12 (stereo not shown) [Compound 189]
3,< 100 µM,CC(C)COC(=O)NC(CCC(=O)O)C(=O)NC(CC(C)C)C(=O)NC(CS)C(=O)NCCc1ccc2ccccc2c1 (stereo not shown) [Compound 192]

# Second part, the compound before the results:
row,Compound,IC50
1,COC(=O)CCc1ccc(CCNC(=O)C(CS)NC(=O)C(CC(C)C)NC(=O)C(CCC(=O)O)NC(=O)OCC(C)C)cc1 (stereo not shown) [Compound 155],< 100 µM
2,CCOC(=O)/C=C/c1ccc(CCNC(=O)[C@H](CS)NC(=O)[C@H](CC(C)C)NC(=O)[C@H](CCC(=O)O)NC(=O)OCC(C)C)cc1 [Compound 157],< 10 µM
3,CC(C)COC(=O)N[C@@H](CCC(=O)O)C(=O)N[C@@H](CC(C)C)C(=O)N[C@@H](CS)C(=O)NCCc1ccc(/C=C/C(=O)O)cc1 [Compound 158],< 10 µM
4,CC(C)COC(=O)NC(CCC(=O)O)C(=O)NC(CC(C)C)C(=O)NC(CS)C(=O)NCCc1ccc(S(N)(=O)=O)cc1 (stereo not shown) [Compound 159],< 10 µM
5,CC(=O)NS(=O)(=O)c1ccc(CCNC(=O)C(CS)NC(=O)C(CC(C)C)NC(=O)C(CCC(=O)O)NC(=O)OCC(C)C)cc1 (stereo not shown) [Compound 160],< 10 µM
6,CC(C)COC(=O)NC(CCC(=O)O)C(=O)NC(CC(C)C)C(=O)NC(CS)C(=O)NCCc1ccc(S(=O)(=O)NC(=O)C(C)C)cc1 (stereo not shown) [Compound 161],< 10 µM
7,CC(C)COC(=O)NC(CCC(=O)O)C(=O)NC(CC(C)C)C(=O)NC(CS)C(=O)NCCc1ccc(S(=O)(=O)NC(=O)c2ccccc2)cc1 (stereo not shown) [Compound 162],< 10 µM
8,CCCCc1ccnc(C(=O)NS(=O)(=O)c2ccc(CCNC(=O)[C@H](CS)NC(=O)[C@H](CC(C)C)NC(=O)[C@H](CCC(=O)O)NC(=O)OCC(C)C)cc2)c1 [Compound 163],< 10 µM
9,CC(C)COC(=O)N[C@@H](CCC(=O)O)C(=O)N[C@@H](CC(C)C)C(=O)N[C@@H](CS)C(=O)NCCc1ccc(Cl)cc1Cl [Compound 165],< 10 µM
10,CC(C)COC(=O)NC(CCC(=O)O)C(=O)NC(CC(C)C)C(=O)NC(CS)C(=O)NCCc1ccc(Cl)c(Cl)c1 (stereo not shown) [Compound 172],< 100 µM
11,COc1cc(CCNC(=O)C(CS)NC(=O)C(CC(C)C)NC(=O)C(CCC(=O)O)NC(=O)OCC(C)C)ccc1O (stereo not shown) [Compound 175],< 100 µM
12,COc1ccc(CCNC(=O)C(CS)NC(=O)C(CC(C)C)NC(=O)C(CCC(=O)O)NC(=O)OCC(C)C)cc1Br (stereo not shown) [Compound 176],< 100 µM
13,CC(C)COC(=O)NC(C(=O)NC(CC(C)C)C(=O)NC(CC(F)F)C(=O)NCCc1ccc(C(=O)O)cc1Cl)C(C)C (stereo not shown) [Compound 179],< 10 µM
14,CC(C)C[C@H](NC(=O)[C@@H](NC(=O)OCC1CCCC1)C(C)C)C(=O)N[C@@H](CS)C(=O)NCCc1ccc(C(=O)O)cc1Cl [Compound 181],< 10 µM
15,CC(C)CC(NC(=O)C(NC(=O)OC1CCS(=O)(=O)CC1)C(C)C)C(=O)NC(CS)C(=O)NCCc1ccc(C(=O)O)cc1Cl (stereo not shown) [Compound 182],< 100 µM
16,CC(C)C[C@H](NC(=O)[C@@H](NC(=O)OCC1CCOC1)C(C)C)C(=O)N[C@@H](CS)C(=O)NCCc1ccc(C(=O)O)cc1Cl (stereo partly shown) [Compound 183],< 10 µM
17,CC(C)CCOC(=O)NC(C(=O)NC(CC(C)C)C(=O)NC(CS)C(=O)NCCc1ccc(C(=O)O)cc1Cl)C(C)C (stereo not shown) [Compound 184],< 10 µM
18,COC(=O)c1ccc(CCNC(=O)C(CS)NC(=O)C(CC(C)C)NC(=O)C(CCC(=O)O)NC(=O)OCC(C)C)c(F)c1 (stereo not shown) [Compound 185],< 100 µM
19,CC(C)COC(=O)NC(CCC(=O)O)C(=O)NC(CC(C)C)C(=O)NC(CS)C(=O)NCCc1ccc(C(=O)O)cc1F (stereo not shown) [Compound 186],< 1 µM
20,CC(C)COC(=O)NC(CCC(=O)O)C(=O)NC(CC(C)C)C(=O)NC(CC(F)F)C(=O)NCCc1c(F)cc(C(=O)O)cc1F (stereo not shown) [Compound 187],< 1 µM
21,CC(C)COC(=O)N[C@@H](CCC(=O)O)C(=O)N[C@@H](CC(C)C)C(=O)N[C@@H](CS)C(=O)NCCc1cn(CC(=O)O)c2ccccc12 [Compound 188],< 10 µM
22,CC(C)COC(=O)N[C@@H](CCC(=O)O)C(=O)N[C@@H](CC(C)C)C(=O)N[C@@H](CS)C(=O)NCCc1ccsc1 [Compound 190],< 10 µM
23,CC(C)COC(=O)NC(CCC(=O)O)C(=O)NC(CC(C)C)C(=O)NC(CS)C(=O)NCCc1cccs1 (stereo not shown) [Compound 191],< 100 µM
24,CC(C)COC(=O)NC(CCC(=O)O)C(=O)NC(CC(C)C)C(=O)NC(CS)C(=O)NCCc1cccnc1 (stereo not shown) [Compound 193],< 100 µM

# Same assay, conditions: Table 2; NS3 protease domain/Pep4AK; read-out: Assay B
row,IC50,Compound
1,< 100 µM,CC(C)C[C@H](NC(=O)[C@H](CCC(=O)O)NC(=O)c1ccco1)C(=O)N[C@@H](CS)C(=O)NCCc1ccccc1Cl [Compound 201]
2,< 100 µM,COc1ccc(CCNC(=O)[C@H](CS)NC(=O)[C@H](CC(C)C)NC(=O)[C@H](CCC(=O)O)NC(=O)c2ccccc2)cc1 [Compound 202]
3,< 100 µM,COc1ccc(CCNC(=O)[C@H](CS)NC(=O)[C@H](CC(C)C)NC(=O)[C@H](CCC(=O)O)NC(=O)c2ccc3c(c2)OCO3)cc1 [Compound 204]
4,< 100 µM,COc1ccc(C(=O)N[C@@H](CCC(=O)O)C(=O)N[C@@H](CC(C)C)C(=O)N[C@@H](CS)C(=O)NCCc2ccccc2Cl)cc1OC [Compound 205]
5,< 100 µM,CC(C)C[C@H](NC(=O)[C@H](CCC(=O)O)NC(=O)c1cccc(Br)c1)C(=O)N[C@@H](CS)C(=O)NCCc1ccccc1Cl [Compound 206]
6,< 100 µM,COc1ccc(CCNC(=O)[C@H](CS)NC(=O)[C@H](CC(C)C)NC(=O)[C@H](CCC(=O)O)NC(=O)c2ccc(C#N)cc2)cc1 [Compound 207]
7,< 100 µM,CC(C)C[C@H](NC(=O)[C@H](CCC(=O)O)NC(=O)c1cc(O)ccc1N)C(=O)N[C@@H](CS)C(=O)NCCc1ccccc1Cl [Compound 208]
8,< 100 µM,CC(C)C[C@H](NC(=O)[C@H](CCC(=O)O)NC(=O)c1ccncc1N)C(=O)N[C@@H](CS)C(=O)NCCc1ccccc1Cl [Compound 209]
9,< 100 µM,Cc1nn(Cc2cccc(C(=O)N[C@@H](CCC(=O)O)C(=O)N[C@@H](CC(C)C)C(=O)N[C@@H](CS)C(=O)NCCc3ccccc3Cl)c2)c(C)c1Br [Compound 210]
10,< 100 µM,CC(C)C[C@H](NC(=O)[C@H](CCC(=O)O)NC(=O)c1ccccc1-c1ccccc1C(=O)O)C(=O)N[C@@H](CS)C(=O)NCCc1ccccc1Cl [Compound 211]
11,< 100 µM,CC(C)C[C@H](NC(=O)[C@H](CCC(=O)O)NC(=O)c1cc2ccccc2s1)C(=O)N[C@@H](CS)C(=O)NCCc1ccccc1Cl [Compound 212]
12,< 100 µM,COc1ccc(CCNC(=O)[C@H](CS)NC(=O)[C@H](CC(C)C)NC(=O)[C@H](CCC(=O)O)NC(=O)c2cc3ccccc3s2)cc1 [Compound 213]
13,< 100 µM,COc1ccc(CCNC(=O)[C@H](CS)NC(=O)[C@H](CC(C)C)NC(=O)[C@H](CCC(=O)O)NC(=O)c2ccco2)cc1 [Compound 214]
14,< 100 µM,CC(C)C[C@H](NC(=O)[C@H](CCC(=O)O)NC(=O)Cc1ccccc1)C(=O)N[C@@H](CS)C(=O)NCCc1ccccc1Cl [Compound 215]
15,< 100 µM,COc1ccc(CCNC(=O)[C@H](CS)NC(=O)[C@H](CC(C)C)NC(=O)[C@H](CCC(=O)O)NC(=O)Cc2ccccc2)cc1 [Compound 216]

row,Compound,IC50
1,CC(C)C[C@H](NC(=O)[C@H](CCC(=O)O)NC(=O)c1ccc2c(c1)OCO2)C(=O)N[C@@H](CS)C(=O)NCCc1ccccc1Cl [Compound 203],< 100 µM
